Experimental data from patent US7098333B2, “Pyrrolo[2,3-d]pyrimidine and their use as purinergic receptor antagonists” (Vernalis Research Limited, priority 2001, dated 2006).
Values belong to the molecule of their own block, whether it stands above or below them.

How the values were obtained:
[1] = system: adenosine A2A receptor; conditions: cited from earlier work
[2] = target: human adenosine A2A receptors (Homo sapiens, UniProt P29274); assay: Binding affinities at hA2A receptors, displacement of [3H]-CGS 21680; conditions: displacement of radioligand [3H]-CGS 21680, in vitro
Chain of human adenosine A2A receptors (P29274 whole entry): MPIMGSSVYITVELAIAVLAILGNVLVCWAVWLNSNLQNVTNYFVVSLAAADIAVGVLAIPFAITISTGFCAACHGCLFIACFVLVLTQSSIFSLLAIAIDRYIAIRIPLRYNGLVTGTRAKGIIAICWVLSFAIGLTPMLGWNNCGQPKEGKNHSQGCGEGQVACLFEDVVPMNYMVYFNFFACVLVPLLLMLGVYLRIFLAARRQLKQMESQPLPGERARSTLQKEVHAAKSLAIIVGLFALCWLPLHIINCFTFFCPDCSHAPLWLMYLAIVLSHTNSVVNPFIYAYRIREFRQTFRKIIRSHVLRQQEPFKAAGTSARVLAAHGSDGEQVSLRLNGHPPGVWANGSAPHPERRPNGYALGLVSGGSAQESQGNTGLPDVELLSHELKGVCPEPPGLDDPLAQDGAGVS

[3] = cited from earlier work

Compound: CCCn1c(=O)c2c(nc(/C=C/c3ccc(OC)c(OC)c3)n2C)n(CCC)c1=O [KF 17837, (E)-8-(3,4-dimethoxystyryl)-1,3-dipropyl-7-methylxanthine]
- anticataleptic effects of a subthreshold dose of L-DOPA plus benserazide ([1]; combination with L-DOPA plus benserazide): potentiated
- catalepsy induced by haloperidol and reserpine ([1]; in vivo): reduced
- cataleptic responses induced by intracerebroventricular CGS 21680 ([1]; oral administration): significantly ameliorated

Compound: OC[C@H]1CCCN1c1nc(-c2ccco2)c2cc[nH]c2n1 [Example 6, (2R)-2-(2-hydroxymethylpyrrolidin-1-yl)-4-(2-furyl)-1H-pyrrolo[2,3-d]pyrimidine]
- melting point: 174.8 to 175.6 °C

Compound: COc1ccc(CNc2nc(-c3ccco3)c3cc[nH]c3n2)cc1OC [Example 7, N-(3,4-dimethoxybenzyl)-4-(2-furyl)-1H-pyrrolo[2,3-d]pyrimidine-2-amine]
- melting point: 154.8 to 154.9 °C

Compound: CN(C)c1nc(-c2ccco2)c2cc[nH]c2n1 [Example 1, N,N-dimethyl-4-(2-furyl)-1H-pyrrolo[2,3-d]pyrimidine-2-amine]
- Ki [2]: 60 nM
- melting point: 196.9 to 197.1 °C

Compound: Clc1nc(-c2ccco2)c2cc[nH]c2n1 [Example 2, 2-chloro-4-(2-furyl)-1H-pyrrolo[2,3-d]pyrimidine]
- melting point: 265.8 to 266.3 °C

Compound: Cn1c(=O)c2[nH]cnc2n(C)c1=O [Theophylline, 1,3-dimethylxanthine]
- mean objective disability scores ([3]; 150 mg/day oral, up to 12 weeks, 15 Parkinsonian patients): significant improvements
- patients reporting moderate or marked subjective improvement ([3]; of 15 Parkinsonian patients, 150 mg/day oral, up to 12 weeks): 11
- serum theophylline levels ([3]; slow release oral preparation 150 mg/day, after one week, 15 Parkinsonian patients): 4.44 mg/L

Other lines, results leading:

- melting point: 91.7 to 92.3 °C
Compound: CN(C)c1nc(-c2ccco2)c2ccn(Cc3ccccc3)c2n1 [Example 3, 7-benzyl-N,N-dimethyl-4-(2-furyl)-7H-pyrrolo[2,3-d]pyrimidine-2-amine]

- Ki [2]: 272 nM
Compound: Nc1nc(-c2ccco2)c2cc[nH]c2n1 [Example 8, 4-(2-furyl)-1H-pyrrolo[2,3-d]pyrimidine-2-amine]

- Ki [2]: 16 nM
Compound: Nc1nc(-c2ccco2)c2ccn(Cc3ccccc3F)c2n1 [Example 13, 7-(2-fluorobenzyl)-4-(2-furyl)-7H-pyrrolo[2,3-d]pyrimidine-2-amine]

- melting point: 108.3 to 109.1 °C
Compound: CN(C)c1nc(-c2ccco2)c2ccn(C(=O)c3ccccc3)c2n1 [Example 5, 7-benzoyl-N,N-dimethyl-4-(2-furyl)-7H-pyrrolo[2,3-d]pyrimidine-2-amine]

- melting point: 115.1 to 115.2 °C
Compound: CN(C)c1nc(-c2ccco2)c2ccn(Cc3ccccc3F)c2n1 [Example 11, N,N-dimethyl-7-(2-fluorobenzyl)-4-(2-furyl)-7H-pyrrolo[2,3-d]pyrimidine-2-amine]
